Assay [1] concerns IGF-1R. In words: NE-mediated IGF-1R activation in lung epithelial cells. The class given is cell-based, human. Particulars: NE-treated lung epithelial cells. As for the experimental part: (§1) Cells were washed twice with ice-cold PBS, and then lysed with a modified RIPA buffer [50 mM Tris-HCl (pH 7.4), 150 mM NaCl, 1 mM EDTA, 0.25% sodium deoxycholate, 1% Triton X-100, a protease inhibitor cocktail, 100 mM NaF, 1 mM Na3VO4]. Lysates were centrifuged at 13,000 rpm for 15 to 20 minutes to harvest supernatants, and then the collected proteins were quantified using the BCA method. Equivalent amounts of the proteins were subjected to electrophoresis using 8-15% SDS-PAGE, and then transferred to a PVDF membrane. The membrane was washed with TBST (0.01% Tween-20-containing Tris-buffered saline), and blocked in a blocking buffer (diluted in TBST to contain 5% skim milk) at room temperature for 1 hour. The membrane was incubated with primary antibodies diluted in 3% BSA-containing TBST at 4° C. for 12 hours, and washed with TBST for over 1 hour. The membrane was incubated with secondary antibodies diluted in TBST containing 3% skim milk at room temperature for 1 to 2 hours, and washed with TBST for over 1 hour. The membrane was reacted in an ECL solution, and band visualization was carried out by exposure to an X-ray film.

Assay [2] concerns IGF2. Put plainly: NE-mediated IGF2 secretion in lung epithelial cells. The class given is cell-based, human. The following applies: NE-treated lung epithelial cells. The method, then: ELISA for IGF1, IGF2 and NE were performed using commercially available ELISA kits (R&D Systems, DSL or Abnova) according to the manufacturer's instruction.
Assay [3] deals with IGF-1R. Put plainly: IGF-1R phosphorylation on change of intracellular Ca2+ (Western blot). The class given is cell-based, human. Particulars: HBE/p53i cells. As for the experimental part: as §1
For orientation: A western blot detects proteins with antibodies after separation by electrophoresis.

In assay [4] the test system is IGF2. In words: IGF2 secretion in GFP-IGF2-overexpressing BEAS-2B cells. The class given is cell-based, human.
Assay [5] concerns IGF-1R. Put plainly: NNK-induced IGF-1R activation in lung epithelial / lung cancer cells (Western blot). The class given is cell-based, human. Particulars: for NNK-mediated IGF-1R activation: NNK-treated BEAS-2B cells. As for the experimental part: as §1
The next assay deals with intracellular Ca^2+. Put plainly: Intracellular Ca2+ production (Fluo-4 AM). The class given is cell-based, human. Particulars: NNK treatment. As for the experimental part:
Lung epithelial cells were placed on coverslips, treated with an antihypertensive drug or a Ca^2+ chelator, treated with Ca^2+ indicator Fluo-4 AM at 37° C. for 15 minutes, and then treated with NE for 5 minutes. The cells were washed with PBS three times. The slides were mounted with a mounting medium, and images were captured using a Nuance multispectral imaging system (PerkinElmer).
For real-time monitoring of a Ca^2+ change in cells by NNK, the cells were seeded into 96-well cell carrier microplates (PerkinElmer), treated with an antihypertensive drug, treated with Fluo-4 AM at 37° C. for 15 minutes, and then treated with NNK. Fluorescence changes were monitored using an Operetta high content screening system, and result analysis was performed using Harmony software (PerkinElmer).

Assay [6] concerns IGF-1R. Put plainly: NNK-induced IGF-1R phosphorylation in IGF-1R or IR-overexpressing fibroblasts (immunoprecipitation). The class given is cell-based. The following applies: NNK 10 μM, time-dependent. As for the experimental part:
Proteins isolated from cells were incubated with an antibody and protein A/G agarose to isolate a protein binding to the corresponding antibody. The presence of other proteins capable of interacting with a specific protein was determined by Western blot analysis.
as §1

In assay [7] the test system is IGF-1R. Put plainly: IGF-1R activation in lung tissue of NNK-treated mice. The class given is in vivo, mouse. The following applies: A/J mice, NNK 3 μmol. As for the experimental part:
as §1

Assay [8] has as its system IGF2. Put plainly: IGF1 and IGF2 generation in lung epithelial cells (RT-PCR). The following applies: NNK 1 or 10 μM. The class given is cell-based, human. As for the experimental part: RNA was isolated from lung epithelial cells by the following method. By adding TRIzol Reagent, the cells were homogenized, treated with chloroform and then centrifuged at 13,000 rpm for 20 minutes. After collection of supernatants, equivalent amounts of isopropanol were added, and then the resulting mixture was centrifuged at 13,000 rpm for 20 minutes to precipitate RNA. The precipitated RNA was washed with 75% ethanol, dried and then dissolved in nuclease-free water. The absorbance at 260 nm was measured, and then the RNA was quantified. RNA having a ratio of A260/A280 nm of 1.8 to 2.0 was used in the experiments. All of the experiments were carried out under RNase-free conditions.
cDNA was synthesized using the PrimeScript™ 1st strand cDNA Synthesis Kit by reacting 2 μg of total RNA with Oligo dT primer (50 μM), a dNTP mixture, and RNase-free dH2O at 65° C. for 5 minutes, reacting a Template RNA primer mixture with 5× PrimeScript Buffer, an RNase inhibitor, PrimeScript RTase, and RNase-free dH2O at 42° C. for 1 hour, and performing heating at 95° C. for 5 minutes to stop the reaction.
After a reaction solution was adjusted to a final volume of 20 μl by adding 2 μl cDNA, 4 μM primer sets, 10 μl EconoTaq® polymerase, and distilled water, polymerase chain reaction (PCR) was carried out using a PCR instrument. […]

In a further assay the test system is angiotensinogen (AGT). Put plainly: AGT expression or secretion in lung epithelial cells. The class given is cell-based, human. As for the experimental part:
as §1

The subject of assay [9] is lung epithelial cells. Put plainly: NNK-induced viability, colony formation and foci formation of lung epithelial cells. The class given is cell-based, human. As for the experimental part:
(§2) Cells (2-3×10^3 cells) were seeded into 96-well plates, treated with a test drug diluted with a medium, and then incubated for 3 days. After incubation, the cells were treated with an MTT solution to have a final concentration of 200-500 μg/ml and incubated for 2 to 4 hours. After discarding the medium, produced formazan was dissolved in DMSO, and then the absorbance at 570 nm was measured. Alternatively, cells were seeded into 12- or 24-well plates, collected after a predetermined time after treatment with a test drug, and then counted using a hemocytometer. 100 to 300 cells were seeded into 6- or 12-well plates and then treated with NNK or NNK and a test drug for 2 to 3 weeks. After 2 to 3 weeks, Colony formation was observed and the colonies were counted after stained staining with crystal violet. Before the experiment, low-melting agar (final concentration of agar: 1%) was diluted with a medium, and then 1 ml of the resulting solution was added and solidified in each 24-well plate, resulting in bottom agar. 2,000 to 5,000 cells were mixed with the low melting agar (final concentration of agar: 0.35-0.4%), 500 μl of the resulting mixture was added onto each bottom agar. After solidification of the agar, the cells were treated with NNK or a test drug, which was diluted with a medium. After 2 to 4 weeks after treatment, colonies were stained with an MTT solution, observed, and then counted. Lung epithelial cells at 90 to 95% confluency were treated with a carcinogen diluted with a growth factor-free medium, or a carcinogen and a test drug. After 2 to 3 weeks, foci formation was observed.

For the next assay, the system named is A/J mice. In words: NNK lung carcinogenesis animal model. The class given is in vivo, mouse. The following applies: NNK 3 μmol oral twice a week, test drug oral 6 times a week, 20 weeks. The method, then: NNK (3 μmol) was orally administered to A/J mice twice a week, and a test drug was orally administered thereto 6 times a week for a total of 20 weeks. Afterward, the mice were sacrificed, lungs were extracted from the mice, and the produced tumors were counted. Lung paraffin blocks were prepared, four or more tissue sections were prepared at regular intervals, and then stained by H&E staining as described below. Numbers and sizes of the tumors were measured to calculate volumes of the tumors. Paraffin blocks were sliced to have a thickness of 4 μm, placed onto silane-coated slides, and then dried. The dried slide glasses were deparaffinized overnight in a 65° C. dry oven. Afterward, the slide glasses were dipped in xylene for 5 minutes twice. After deparaffinization, the slide glasses were sequentially hydrated with 100%, 95%, 70%, and 50% ethanol, stained with a Harris hematoxylin solution for 1.5 minutes, dipped in a 1% HCl alcohol solution and ammonia, and then counterstained with an eosin solution for 30 seconds. Afterward, the resulting tissue sections were sequentially dehydrated using 95% and 100% ethanol, transparentized with xylene, and then mounted. Images were captured using a microscope.

Assay [10] deals with lung epithelial cells. In words: Transformation of lung epithelial cells by stress hormones. The class given is cell-based, human. The following applies: treatment with the stress hormone alone. The method, then: as §2
The test system of assay [11] is lung epithelial cells. Put plainly: NE-induced viability and colony formation of lung epithelial cells. The class given is cell-based, human. Particulars: NE-treated lung epithelial cells. As for the experimental part:
as §2, with “100 to 300 cells were seeded into 6- or 12-well plates and then treated with NNK or NNK and a test drug for 2 to 3 weeks.” left out, “counted.” for “counted. Lung epithelial cells at 90 to 95% confluency were treated with a carcinogen diluted with a growth factor-free medium, or a carcinogen and a test drug. After 2 to 3 weeks, foci formation was observed.”

Like-named read-outs stand apart in the source and are kept apart here.

Consider `CC(=O)OCOC(=O)CN(CC(=O)OCOC(C)=O)c1ccccc1OCCOc1ccccc1N(CC(=O)OCOC(C)=O)CC(=O)OCOC(C)=O` [BAPTA-AM, 1,2-bis(2-aminophenoxy)ethane-N,N,N′,N′-tetraacetic acid tetrakis(acetoxymethyl ester)], for which the “NE-mediated IGF-1R activation” value in the assay on IGF-1R [1] is “inhibited”. Further, in the assay with IGF2 [2], the “NE-mediated IGF2 secretion” value is reported as “inhibited”. In addition, the IGF-1R phosphorylation result in the assay on IGF-1R [3] is recorded as “inhibited”. The “NNK-increased IGF2 secretion” value in the assay with IGF2 [4] (GFP-IGF2-overexpressing BEAS-2B, with NNK) was “inhibited”.

Turning to `O=C(O)CN(CCOCCOCCN(CC(=O)O)CC(=O)O)CC(=O)O` [EGTA, ethylene glycol tetraacetic acid], in the assay on IGF-1R [1], the “NE-mediated IGF-1R activation” value is recorded as “inhibited”. In the assay on IGF2 [2], the “NE-mediated IGF2 secretion” value is given as “inhibited”. Besides, in the assay with IGF-1R [3], the IGF-1R phosphorylation result is “inhibited”. Besides, in the assay on IGF2 [4], the “NNK-increased IGF2 secretion” value was “inhibited”.

As for `CN(CCCC(=O)c1cccnc1)N=O` [NNK, 4-(methylnitrosamino)-1-(3-pyridyl)-1-butanone], the “activation of IGF-1R and its downstream signaling mediators Akt, mTOR, ERK” value in the assay on IGF-1R [5] (NHBE, SAEC, HBE/p53i, HB56B, BEAS-2B, increasing NNK time or concentration) is “increased”. Moreover, the “IGF-1R activation in lung cancer cells” value in the assay on IGF-1R [5] (various lung cancer cells with different genotypes, NNK 10 μM) is “activated”. Also, the IGF2 secretion result with IGF2 [4] (GFP-IGF2-overexpressing BEAS-2B, NNK treatment) was “increased”. The “intracellular Ca^2+” value with intracellular Ca^2+ is given as “increased”. For the same compound, the “specificity of increase in IGF-1R phosphorylation (IGF-1R vs IR)” value with IGF-1R [6] was “specifically shown for IGF-1R, not for IR”. The “activation of IGF-1R and its downstream signaling IRS in lung tissue” value with IGF-1R [7] was “increased”. The IGF2 generation entry in the assay with IGF2 [8] was “increased”. The AGT promoter activation result in the assay with angiotensinogen (AGT) (NNK treatment) was “activated”. The “AGT expression and secretion” value in the assay on angiotensinogen (AGT) (increase in NNK treatment time and concentration) is on record as “increased”. In addition, the AGT expression result in the assay on angiotensinogen (AGT) (lung epithelial cells treated with NNK for 120 days) is “increased”.

Consider `C[C@H](CS)C(=O)N1CCC[C@H]1C(=O)O` [captopril], for which the “NNK-mediated IGF-1R activation” value with IGF-1R [5] is given as “inhibited”. In the assay with lung epithelial cells [9], the “NNK-induced promotion of cell viability” value was “suppressed”, the “NNK-induced promotion of colony formation” value is given as “suppressed” and the “NNK-induced promotion of foci formation” value is on record as “suppressed”. Also, in the assay with A/J mice, the NNK-induced tumorigenesis result is “significantly suppressed”.

For the compound `C[C@]12CCC(=O)C=C1CC[C@@H]1[C@@H]2[C@@H](O)C[C@@]2(C)[C@H]1CC[C@]2(O)C(=O)CO` [cortisol], in the assay with lung epithelial cells [10], the “transformation of lung epithelial cells (viability, colony formation, foci formation)” value is given as “not by cortisol”.

For the compound `CNC[C@H](O)c1ccc(O)c(O)c1` [epinephrine], in the assay on lung epithelial cells [10], the “transformation of lung epithelial cells (viability, colony formation, foci formation)” value was “induced”.

Turning to `C[C@H](CCC(=O)O)C[C@H](C)C[C@H](C)C(=O)/C=C(\O)[C@H](C)C[C@H](C)C/C=C/[C@@H](C)[C@@H](O)[C@@H](C)[C@@H](O)C[C@@H]1CC[C@@](C)([C@H]2CC[C@@](C)([C@@H](C)O)O2)O1` [ionomycin], in the assay on IGF-1R [3], the IGF-1R phosphorylation result is “increased”.

`C[C@]1(O)C[C@@H](c2nc(-c3ccc4ccc(-c5ccccc5)nc4c3)c3c(N)nccn32)C1` [linsitinib]: in the assay with lung epithelial cells [11], the “NE-induced increase in colony formation of lung epithelial cells” value is given as “significantly suppressed” and the “NE-induced increase in viability of lung epithelial cells” value is “significantly suppressed”.

On to `CCCCc1nc(Cl)c(CO)n1Cc1ccc(-c2ccccc2-c2nn[nH]n2)cc1` [losartan], for which the “NNK-mediated IGF-1R activation” value with IGF-1R [5] is reported as “inhibited”. Moreover, in the assay on lung epithelial cells [9], the “NNK-induced promotion of cell viability” value is “suppressed”, the “NNK-induced promotion of colony formation” value is reported as “suppressed” and the “NNK-induced promotion of foci formation” value is “suppressed”. The NNK-induced tumorigenesis entry with A/J mice was “significantly suppressed”.

For `COC(=O)C1=C(C)NC(C)=C(C(=O)OC)C1c1ccccc1[N+](=O)[O-]` [nifedipine], the “NE-mediated IGF-1R activation” value in the assay with IGF-1R [1] is given as “inhibited”. Besides, the “NE-mediated IGF2 secretion” value with IGF2 [2] is on record as “inhibited”.

In the case of `C/C=C(/C)C(=O)O[C@H]1C(C)=C2[C@H]([C@@H]1OC(=O)CCCCCCC)[C@@](C)(OC(C)=O)C[C@H](OC(=O)CCC)[C@@]1(O)[C@H]2OC(=O)[C@@]1(C)O` [thapsigargin], the IGF-1R phosphorylation result with IGF-1R [3] is “increased”.

For the origin of these results see patent US11123335B2, “Method for preventing lung diseases in smokers and non-smokers using antihypertensive drug” (SEOUL NATIONAL UNIVERSITY R & DB FOUNDATION, priority 2015, dated 2021).
